Data: patent US7923450B2, “Modulators for amyloid beta” (Hoffmann-La Roche Inc., priority 2008, dated 2011)
Structures can show the parent of a compound that is named as a salt.

Tested on: γ-secretase
Assay: Cellular γ-secretase assay (Aβ42 secretion)
Type: cell-based
Details: inhibition of Aβ42 secretion; human neuroglioma H4 cells overexpressing human APP; 22 hrs incubation; read-out: EC50 in vitro
Protocol: Cellular γ-Secretase Assay
Human neuroglioma H4 cells overexpressing human APP were plated at 30,000 cells/well/200 μl in 96-well plates in IMDM media containing 10% FCS, 0.2 mg/l Hygromycin B and incubated for 2 h at 37° C., 5% CO2 prior to adding test compounds.
Compounds for testing were dissolved in 100% Me2SO yielding in a 10 mM stock solution. Typically 12 μl of these solutions were further diluted in 1000 μl of IMDM media (w/o FCS,). Sub sequential 1:1 dilutions gave a ten point dose response curve. 100 μl of each dilution was added to the cells in 96-well plates. Appropriate controls using vehicle only and reference compound were applied to this assay. The final concentration of Me2SO was 0.4%.
After incubation for 22 hrs at 37° C., 5% CO2, 50 μl supernatant was transferred into round-bottom 96-well polypropylene plates for detection of Aβ42. 50 μl assay buffer (50 mM Tris/Cl, pH 7.4, 60 mM NaCl, 0.5% BSA, 1% TWEEN 20) was added to the wells followed by the addition of 100 μl of detection antibody (ruthenylated Aβ42-specific antibody BAP15 0.0625 μg/mL in assay buffer). 50 μl of a premix of capture antibody (biotinylated 6E10 antibody, 1 μg/mL) and Steptavidin-coated magnetic beads (Dynal M-280, 0.125 mg/mL) were preincubated for 1 hr at room temperature before adding the assay plates. Assay plates were incubated on a shaker for 3 hrs at room temperature and finally read in the Bioveris M8 Analyser according to the manufacturer's instructions (Bioveris).
EC50 values for inhibition of Aβ42 secretion were calculated by nonlinear regression fit analysis using XLfit 4.0 software (IDBS).

SMILES	EC50 [nM]
COc1cc(Nc2nc3c(s2)CCCC3c2ccccc2)ccc1-c1cnn(C)c1 (centres unmarked) [Example 91, [3-Methoxy-4-(1-methyl-1H-pyrazol-4-yl)-phenyl]-(4-phenyl-4,5,6,7-tetrahydro-benzothiazol-2-yl)-amine]	240
COc1cc(Nc2nc3c(s2)CCCC3(CC#N)c2ccc(Cl)cc2)ccc1-n1cnc(C)c1 (centres unmarked) [Example 19, {4-(4-Chloro-phenyl)-2-[3-methoxy-4-(4-methyl-imidazol-1-yl)-phenylamino]-4,5,6,7-tetrahydro-benzothiazol-4-yl}-acetonitrile]	260
COc1cc(Nc2ncc3c(n2)C(c2ccccc2)CNC3)ccc1-n1cnc(C)c1 (centres unmarked) [Example 41, [3-Methoxy-4-(4-methyl-imidazol-1-yl)-phenyl]-(8-phenyl-5,6,7,8-tetrahydro-pyrido[4,3-d]pyrimidin-2-yl)-amine hydrochloride]	340
COc1cc(Nc2ncc3c(n2)C(c2ccccc2)CCC3)ccc1-n1cnc(C)c1 (centres unmarked) [Example 39, [3-Methoxy-4-(4-methyl-imidazol-1-yl)-phenyl]-(8-phenyl-5,6,7,8-tetrahydro-quinazolin-2-yl)-amine]	480
COc1cc(Nc2ncc3c(n2)C(c2ccccc2)CN(C(C)=O)C3)ccc1-n1cnc(C)c1 (centres unmarked) [Example 42, 1-{2-[3-Methoxy-4-(4-methyl-imidazol-1-yl)-phenylamino]-8-phenyl-7,8-dihydro-5H-pyrido[4,3-d]pyrimidin-6-yl}-ethanone]	500
COc1cc(Nc2nc3c(s2)CCCC3c2ccccc2)ccc1-c1cnco1 (centres unmarked) [Example 1, (3-Methoxy-4-oxazol-5-yl-phenyl)-(4-phenyl-4,5,6,7-tetrahydro-benzothiazol-2-yl)-amine]	300

Compounds with a lower EC50, results first:

EC50 [nM]	SMILES
160	COc1cc(Nc2nc3c(s2)CCCC3c2cc(F)ccc2F)ccc1-n1cnc(C)c1 (centres unmarked) [Example 12, [4-(2,5-Difluoro-phenyl)-4,5,6,7-tetrahydro-benzothiazol-2-yl]-[3-methoxy-4-(4-methyl-imidazol-1-yl)-phenyl]-amine]
130	Cc1cn(-c2ccc(Nc3ncc4c(n3)C(c3ccccc3)CCC4)cc2F)cn1 (centres unmarked) [Example 38, [3-Fluoro-4-(4-methyl-imidazol-1-yl)-phenyl]-(8-phenyl-5,6,7,8-tetrahydro-quinazolin-2-yl)-amine]
120	COc1cc(Nc2nc3c(s2)CCCC3c2cc(F)cc(F)c2)ccc1-n1cnc(C)c1 (centres unmarked) [Example 28, [4-(3,5-Difluoro-phenyl)-4,5,6,7-tetrahydro-benzothiazol-2-yl]-[3-methoxy-4-(4-methyl-imidazol-1-yl)-phenyl]-amine]
110	COc1ccccc1C1CCCc2sc(Nc3ccc(-n4cnc(C)c4)c(OC)c3)nc21 (centres unmarked) [Example 7, [3-Methoxy-4-(4-methyl-imidazol-1-yl)-phenyl]-[4-(2-methoxy-phenyl)-4,5,6,7-tetrahydro-benzothiazol-2-yl]-amine]
100	COc1cc(Nc2nc3c(s2)CCCC3c2ccc(C)c(C(F)(F)F)c2)ccc1-n1cnc(C)c1 (centres unmarked) [Example 9, [3-Methoxy-4-(4-methyl-imidazol-1-yl)-phenyl]-[4-(4-methyl-3-trifluoromethyl-phenyl)-4,5,6,7-tetrahydro-benzothiazol-2-yl]-amine]
100	COc1cc(Nc2nc3c(s2)CCCC3c2ccc(OC(F)(F)F)cc2)ccc1-n1cnc(C)c1 (centres unmarked) [Example 10, [3-Methoxy-4-(4-methyl-imidazol-1-yl)-phenyl]-[4-(4-trifluoromethoxy-phenyl)-4,5,6,7-tetrahydro-benzothiazol-2-yl]-amine]
50	Cc1cn(-c2ccc(Nc3nc4c(s3)CCCC4c3ccccc3)cc2F)cn1 (centres unmarked) [Example 5, [3-Fluoro-4-(4-methyl-imidazol-1-yl)-phenyl]-(4-phenyl-4,5,6,7-tetrahydro-benzothiazol-2-yl)-amine]
40	COc1cc(Nc2nc3c(s2)CCCC3c2ccccc2)ccc1-n1cnc(C)c1 (centres unmarked) [Example 6, [3-Methoxy-4-(4-methyl-imidazol-1-yl)-phenyl]-(4-phenyl-4,5,6,7-tetrahydro-benzothiazol-2-yl)-amine]
